Test results published in publication PMC6021502, “Cannabigerol Action at Cannabinoid CB1 and CB2 Receptors and at CB1–CB2 Heteroreceptor Complexes” (Frontiers in Pharmacology, 2018).

Experiments:
[1] = test system: PPARγ transcriptional activity; set-up: method as in Granja et al., 2012; Nadal et al., 2017; settings: high concentrations, 10–25 μM range; ref Granja et al., 2012; Nadal et al., 2017; cited from earlier work
CB1R = test system: T1, CB1R; assay: β-arrestin 2 recruitment (BRET) in HEK-293T cells; assay type: cell-based, human
T1 construct: expressed in transfected cells; host or cells: HEK-293T, transient transfection (PEI)
Procedure: HEK-293T cells were grown in DMEM medium (Gibco, Paisley, Scotland, United Kingdom) supplemented with 2 mM L-glutamine, 100 U/mL penicillin/streptomycin, MEM Non-Essential Amino Acids Solution (1/100) and 5% (v/v) heat inactivated Foetal Bovine Serum (FBS) (Invitrogen, Paisley, Scotland, United Kingdom). […] Cells were transiently transfected with the PEI (Polyethylenimine, Sigma, St. Louis, MO, United States) method as previously described ([Medrano et al., 2017]; [Navarro et al., 2018b]) and used for functional assays 48 h later (unless otherwise stated).
Arrestin recruitment was determined as previously described ([Medrano et al., 2017]; [Navarro et al., 2018b]). Briefly, BRET experiments were performed in HEK-293T cells 48 h after transfection with the cDNA corresponding to the CB2R-YFP or CB1R-YFP and 1 μg cDNA corresponding to β-arrestin 2-Rluc. Cells (20 μg protein) were distributed in 96-well microplates (Corning 3600, white plates with white bottom) and were incubated with CBG for 15 min and stimulated with the agonist for 10 min prior the addition of 5 μM coelenterazine H (Molecular Probes, Eugene, OR, United States). After 1 min of adding coelenterazine H, BRET between β-arrestin 2-Rluc and receptor-YFP was determined and quantified. The readings were collected using a Mithras LB 940 (Berthold Technologies, Bad Wildbad, Germany) that allows the integration of the signals detected in the short-wavelength filter at 485 nm and the long-wavelength filter at 530 nm. To quantify protein-RLuc expression luminescence readings were also performed 10 min of adding 5 μM coelenterazine H.

TRPM8 channels = test system: TRPM8 channels; set-up: method as in De Petrocellis et al., 2011; settings: ref De Petrocellis et al., 2011; read-out: IC50, antagonist of TRPM8 channels; cited from earlier work

Structure (SMILES): CCCCCc1cc(O)c(C/C=C(\C)CCC=C(C)C)c(O)c1 [CBG, cannabigerol]
- Effect on PPARγ transcriptional activity [1]: may enhance the PPARγ transcriptional activity
- Effect on agonist-induced β-arrestin recruitment (CB1R; 100 nM or 1 μM CBG, 100 nM AEA or ACEA, CB1R): unable to modify
- β-arrestin recruitment (CB1R; CBG alone, 1 nM to 10 μM, CB1R-expressing cells): small increase
- IC50 (TRPM8 channels): 160 nM
